Species on record: Rattus norvegicus
Experiment: Open TG-GATES - Regimen: Daily Repeat
Assay type: toxicity, organism-based, Sprague-Dawley
Set-up: regimen Daily Repeat, gender Male, age 6 weeks
Details: in vivo, po, route gavage; for APTT / Bas / Eos / Fbg / Hb / Ht / Lym / MCH / MCHC / MCV / Mono / Neu / PT / Plat / RBC / Ret / WBC: tissue Blood; for KIDNEY_L / KIDNEY_R / KIDNEY_TOTAL: tissue Kidney; for LIVER: tissue Liver; for A/G / ALP / ALT / AST / BUN / CRE / Ca / Cl / DBIL / GLC / IP / K / LDH / Na / PL / RALB / TBIL / TC / TG / TP / gamma-GTP: tissue Plasma
[1] = 60 mg/kg, 72 h, dose level Middle, time 3 day
[2] = 60 mg/kg, […], dose level Middle, time 7 day
[3] = 60 mg/kg, […], dose level Middle, time 14 day
[4] = 60 mg/kg, […], dose level Middle, time 28 day
[5] = 200 mg/kg, 72 h, dose level High, time 3 day
[6] = 200 mg/kg, […], dose level High, time 7 day
[7] = 200 mg/kg, […], dose level High, time 14 day
[8] = 200 mg/kg, […], dose level High, time 28 day

CCc1oc2ccccc2c1C(=O)c1cc(Br)c(O)c(Br)c1 [BENZBROMARONE]
TERMINAL_BW [1]: 238.9 g
APTT [1]: 16.6 s
Bas [1]: 0%
Eos [1]: 1%
Fbg [1]: 234.4 mg/dL
Hb [1]: 13.5 g/dL
Ht [1]: 40%
Lym [1]: 76.4%
MCH [1]: 21.6 pg
MCHC [1]: 33.8%
MCV [1]: 63.7 fL
Mono [1]: 7.2%
Neu [1]: 15.8%
PT [1]: 11.6 s
Plat [1]: 109.3 x10_4/uL
RBC [1]: 628.4 x10_4/ul
Ret [1]: 7.7%
WBC [1]: 107.1 x10_2/uL
KIDNEY_L [1]: 1.1 g
KIDNEY_R [1]: 1.1 g
KIDNEY_TOTAL [1]: 2.1 g
LIVER [1]: 14.3 g
A/G [1]: 2
ALP [1]: 793.8 IU/L
ALT [1]: 33.6 IU/L
AST [1]: 62.2 IU/L
BUN [1]: 18 mg/dL
CRE [1]: 0.6 mg/dL
Ca [1]: 10.3 mg/dL
Cl [1]: 106.2 meq/L
DBIL [1]: 0.014 mg/dL
GLC [1]: 190 mg/dL
IP [1]: 7.8 mg/dL
K [1]: 4.5 meq/L
LDH [1]: 104.4 IU/L
Na [1]: 140.2 meq/L
PL [1]: 138 mg/dL
RALB [1]: 4 g/dL
TBIL [1]: 0.3 mg/dL
TC [1]: 76.4 mg/dL
TG [1]: 62.8 mg/dL
TP [1]: 5.9 g/dL
gamma-GTP [1]: 0.8 IU/L
TERMINAL_BW [2]: 264.4 g
TERMINAL_BW [3]: 327 g
TERMINAL_BW [4]: 383.7 g
APTT [2]: 17.8 s
Bas [2]: 0%
Eos [2]: 1.2%
Fbg [2]: 234.6 mg/dL
Hb [2]: 14.4 g/dL
Ht [2]: 42.8%
Lym [2]: 80.8%
MCH [2]: 21.3 pg
MCHC [2]: 33.7%
MCV [2]: 63.3 fL
Mono [2]: 6.4%
Neu [2]: 11%
PT [2]: 12.2 s
Plat [2]: 119.4 x10_4/uL
RBC [2]: 675.2 x10_4/ul
Ret [2]: 5.6%
WBC [2]: 106.8 x10_2/uL
APTT [3]: 17.5 s
Bas [3]: 0%
Eos [3]: 1%
Fbg [3]: 237 mg/dL
Hb [3]: 14.5 g/dL
Ht [3]: 43.2%
Lym [3]: 79.4%
MCH [3]: 21.1 pg
MCHC [3]: 33.5%
MCV [3]: 63.1 fL
Mono [3]: 7%
Neu [3]: 12.4%
PT [3]: 12.1 s
Plat [3]: 110.5 x10_4/uL
RBC [3]: 685.4 x10_4/ul
Ret [3]: 4.6%
WBC [3]: 129.3 x10_2/uL
APTT [4]: 18.4 s
Bas [4]: 0%
Eos [4]: 1.6%
Fbg [4]: 232.6 mg/dL
Hb [4]: 15.2 g/dL
Ht [4]: 45.8%
Lym [4]: 84.2%
MCH [4]: 19.3 pg
MCHC [4]: 33.1%
MCV [4]: 58.2 fL
Mono [4]: 6%
Neu [4]: 8.8%
PT [4]: 12.3 s
Plat [4]: 107.4 x10_4/uL
RBC [4]: 787.4 x10_4/ul
Ret [4]: 2.8%
WBC [4]: 139.8 x10_2/uL
KIDNEY_L [2]: 1.2 g
KIDNEY_R [2]: 1.2 g
KIDNEY_TOTAL [2]: 2.4 g
KIDNEY_L [3]: 1.4 g
KIDNEY_R [3]: 1.3 g
KIDNEY_TOTAL [3]: 2.7 g
KIDNEY_L [4]: 1.5 g
KIDNEY_R [4]: 1.5 g
KIDNEY_TOTAL [4]: 2.9 g
LIVER [2]: 16.1 g
LIVER [3]: 20.1 g
LIVER [4]: 21.5 g
A/G [2]: 2.4
ALP [2]: 869.6 IU/L
ALT [2]: 28 IU/L
AST [2]: 57 IU/L
BUN [2]: 20 mg/dL
CRE [2]: 0.6 mg/dL
Ca [2]: 10.5 mg/dL
Cl [2]: 107.4 meq/L
DBIL [2]: 0 mg/dL
GLC [2]: 186.8 mg/dL
IP [2]: 7.8 mg/dL
K [2]: 5 meq/L
LDH [2]: 96.2 IU/L
Na [2]: 139.7 meq/L
PL [2]: 154 mg/dL
RALB [2]: 4.4 g/dL
TBIL [2]: 0.3 mg/dL
TC [2]: 82.6 mg/dL
TG [2]: 80 mg/dL
TP [2]: 6.3 g/dL
gamma-GTP [2]: 0.2 IU/L
A/G [3]: 2.1
ALP [3]: 872.6 IU/L
ALT [3]: 29.4 IU/L
AST [3]: 57.8 IU/L
BUN [3]: 20.2 mg/dL
CRE [3]: 0.6 mg/dL
Ca [3]: 10.5 mg/dL
Cl [3]: 106.3 meq/L
DBIL [3]: 0.01 mg/dL
GLC [3]: 191.4 mg/dL
IP [3]: 7.6 mg/dL
K [3]: 4.7 meq/L
LDH [3]: 97.4 IU/L
Na [3]: 140.3 meq/L
PL [3]: 156.4 mg/dL
RALB [3]: 4.5 g/dL
TBIL [3]: 0.3 mg/dL
TC [3]: 85.6 mg/dL
TG [3]: 85.8 mg/dL
TP [3]: 6.6 g/dL
gamma-GTP [3]: 0.8 IU/L
A/G [4]: 1.9
ALP [4]: 605.2 IU/L
ALT [4]: 34 IU/L
AST [4]: 54 IU/L
BUN [4]: 19.2 mg/dL
CRE [4]: 0.6 mg/dL
Ca [4]: 9.9 mg/dL
Cl [4]: 108.4 meq/L
DBIL [4]: 0.016 mg/dL
GLC [4]: 185.2 mg/dL
IP [4]: 6.9 mg/dL
K [4]: 4.5 meq/L
LDH [4]: 147.4 IU/L
Na [4]: 141 meq/L
PL [4]: 144.6 mg/dL
RALB [4]: 4.3 g/dL
TBIL [4]: 0.2 mg/dL
TC [4]: 84.4 mg/dL
TG [4]: 75.4 mg/dL
TP [4]: 6.6 g/dL
gamma-GTP [4]: 1 IU/L
TERMINAL_BW [5]: 217 g
APTT [5]: 22.6 s
Bas [5]: 0%
Eos [5]: 1.2%
Fbg [5]: 211 mg/dL
Hb [5]: 14 g/dL
Ht [5]: 41.9%
Lym [5]: 80%
MCH [5]: 21.9 pg
MCHC [5]: 33.5%
MCV [5]: 65.5 fL
Mono [5]: 5%
Neu [5]: 14.2%
PT [5]: 14.6 s
Plat [5]: 104.6 x10_4/uL
RBC [5]: 640.8 x10_4/ul
Ret [5]: 5.7%
WBC [5]: 124.5 x10_2/uL
KIDNEY_L [5]: 1 g
KIDNEY_R [5]: 1 g
KIDNEY_TOTAL [5]: 2 g
LIVER [5]: 15.3 g
A/G [5]: 2.6
ALP [5]: 1041.8 IU/L
ALT [5]: 45.5 IU/L
AST [5]: 69.2 IU/L
BUN [5]: 17 mg/dL
CRE [5]: 0.7 mg/dL
Ca [5]: 10 mg/dL
Cl [5]: 107.9 meq/L
DBIL [5]: 0.025 mg/dL
GLC [5]: 167.2 mg/dL
IP [5]: 6.7 mg/dL
K [5]: 4.4 meq/L
LDH [5]: 195 IU/L
Na [5]: 141.3 meq/L
PL [5]: 129.2 mg/dL
RALB [5]: 4.1 g/dL
TBIL [5]: 0.3 mg/dL
TC [5]: 73.2 mg/dL
TG [5]: 52.8 mg/dL
TP [5]: 5.7 g/dL
gamma-GTP [5]: 1 IU/L
TERMINAL_BW [6]: 254.9 g
TERMINAL_BW [7]: 307.7 g
TERMINAL_BW [8]: 357.4 g
APTT [6]: 18.9 s
Bas [6]: 0%
Eos [6]: 1.5%
Fbg [6]: 238.5 mg/dL
Hb [6]: 14.4 g/dL
Ht [6]: 42.8%
Lym [6]: 75.5%
MCH [6]: 21.6 pg
MCHC [6]: 33.6%
MCV [6]: 64.1 fL
Mono [6]: 7%
Neu [6]: 16.2%
PT [6]: 12.2 s
Plat [6]: 113.7 x10_4/uL
RBC [6]: 668.5 x10_4/ul
Ret [6]: 5.2%
WBC [6]: 92.8 x10_2/uL
APTT [7]: 18.5 s
Bas [7]: 0%
Eos [7]: 1%
Fbg [7]: 224.4 mg/dL
Hb [7]: 14.3 g/dL
Ht [7]: 42.7%
Lym [7]: 73.6%
MCH [7]: 20.6 pg
MCHC [7]: 33.4%
MCV [7]: 61.6 fL
Mono [7]: 6.2%
Neu [7]: 19.8%
PT [7]: 12.5 s
Plat [7]: 99.2 x10_4/uL
RBC [7]: 694 x10_4/ul
Ret [7]: 4.5%
WBC [7]: 138 x10_2/uL
APTT [8]: 17.9 s
Bas [8]: 0%
Eos [8]: 1.5%
Fbg [8]: 204 mg/dL
Hb [8]: 15 g/dL
Ht [8]: 44.7%
Lym [8]: 79.2%
MCH [8]: 19.1 pg
MCHC [8]: 33.5%
MCV [8]: 57.1 fL
Mono [8]: 5.8%
Neu [8]: 14.2%
PT [8]: 12.5 s
Plat [8]: 99.8 x10_4/uL
RBC [8]: 783.2 x10_4/ul
Ret [8]: 2.7%
WBC [8]: 130.6 x10_2/uL
KIDNEY_L [6]: 1.1 g
KIDNEY_R [6]: 1.1 g
KIDNEY_TOTAL [6]: 2.1 g
KIDNEY_L [7]: 1.2 g
KIDNEY_R [7]: 1.3 g
KIDNEY_TOTAL [7]: 2.5 g
KIDNEY_L [8]: 1.3 g
KIDNEY_R [8]: 1.4 g
KIDNEY_TOTAL [8]: 2.8 g
LIVER [6]: 18.9 g
LIVER [7]: 22.3 g
LIVER [8]: 22.9 g
A/G [6]: 2.6
ALP [6]: 853.5 IU/L
ALT [6]: 34.2 IU/L
AST [6]: 61.2 IU/L
BUN [6]: 22 mg/dL
CRE [6]: 0.6 mg/dL
Ca [6]: 10.5 mg/dL
Cl [6]: 106.8 meq/L
DBIL [6]: 0.0225 mg/dL
GLC [6]: 190 mg/dL
IP [6]: 8.1 mg/dL
K [6]: 4.5 meq/L
LDH [6]: 201.5 IU/L
Na [6]: 140.7 meq/L
PL [6]: 157.5 mg/dL
RALB [6]: 4.7 g/dL
TBIL [6]: 0.2 mg/dL
TC [6]: 100.8 mg/dL
TG [6]: 35.8 mg/dL
TP [6]: 6.5 g/dL
gamma-GTP [6]: 1 IU/L
A/G [7]: 2.3
ALP [7]: 1092 IU/L
ALT [7]: 36.2 IU/L
AST [7]: 63.6 IU/L
BUN [7]: 21 mg/dL
CRE [7]: 0.6 mg/dL
Ca [7]: 10.4 mg/dL
Cl [7]: 107.4 meq/L
DBIL [7]: 0.022 mg/dL
GLC [7]: 186 mg/dL
IP [7]: 7.4 mg/dL
K [7]: 4.3 meq/L
LDH [7]: 163.8 IU/L
Na [7]: 141.7 meq/L
PL [7]: 144.2 mg/dL
RALB [7]: 4.4 g/dL
TBIL [7]: 0.3 mg/dL
TC [7]: 87.4 mg/dL
TG [7]: 36.6 mg/dL
TP [7]: 6.3 g/dL
gamma-GTP [7]: 1 IU/L
A/G [8]: 2.2
ALP [8]: 795 IU/L
ALT [8]: 42.5 IU/L
AST [8]: 64.5 IU/L
BUN [8]: 21 mg/dL
CRE [8]: 0.5 mg/dL
Ca [8]: 9.6 mg/dL
Cl [8]: 108.2 meq/L
DBIL [8]: 0.02 mg/dL
GLC [8]: 178.2 mg/dL
IP [8]: 7 mg/dL
K [8]: 4 meq/L
LDH [8]: 108.2 IU/L
Na [8]: 141.9 meq/L
PL [8]: 120 mg/dL
RALB [8]: 4 g/dL
TBIL [8]: 0.3 mg/dL
TC [8]: 69.5 mg/dL
TG [8]: 34.5 mg/dL
TP [8]: 5.9 g/dL
gamma-GTP [8]: 1.2 IU/L

— ChEMBL document CHEMBL3885861, “Open TG-GATES”
